What was measured:
Format in all cases: functional
Lepidoptera [1] = experiment: Insecticidal activity against Lepidoptera infected rice plant assessed as white earhead damage at 1 kg ai/ha applied as granules on 30 to 50 days post planting (reference value: 12.17%)
Lepidoptera [2] = experiment: Insecticidal activity against Lepidoptera infected rice plant assessed as increase in grain yield at 1 kg ai/ha applied as granules on 30 to 50 days post planting (reference value: 28%)
Lepidoptera [3] = experiment: Insecticidal activity against Lepidoptera infected rice plant assessed as white earhead damage at 0.75 kg ai/ha applied as emulsified concentrates through foliar spray on 30 to 50 days post planting (reference value: 12.17%)
Lepidoptera [4] = experiment: Insecticidal activity against Lepidoptera infected rice plant assessed as dead heart damage at 1 kg ai/ha applied as granules on 30 to 50 days post planting (reference value: 11.87%)
Lepidoptera [5] = experiment: Insecticidal activity against Lepidoptera infected rice plant assessed as increase in grain yield at 0.75 kg ai/ha applied as emulsified concentrates through foliar spray on 30 to 50 days post planting (reference value: 28%)
Lepidoptera [6] = experiment: Insecticidal activity against Lepidoptera infected rice plant assessed as dead heart damage at 0.75 kg ai/ha applied as emulsified concentrates through foliar spray on 30 to 50 days post planting (reference value: 11.87%)
Lepidoptera [7] = experiment: Insecticidal activity against Lepidoptera infected rice plant assessed as increase in grain yield (reference value: 28%)
Lepidoptera [8] = experiment: Insecticidal activity against Lepidoptera infected rice plant assessed as dead heart damage (reference value: 11.87%)
Lepidoptera [9] = experiment: Insecticidal activity against Lepidoptera infected rice plant assessed as white earhead damage (reference value: 12.17%)

SMILES	Activity (Lepidoptera [1])	Crop_yield (Lepidoptera [2])	Activity (Lepidoptera [3])	Activity (Lepidoptera [4])	Crop_yield (Lepidoptera [5])	Activity (Lepidoptera [6])	Crop_yield (Lepidoptera [7])	Activity (Lepidoptera [8])	Activity (Lepidoptera [9])
CCOP(=S)(OCC)Oc1nc(Cl)c(Cl)cc1Cl [CHLORPYRIFOS]	6.18%	37%	6.72%	5.39%	36%	7.26%			
CNC(=O)/C=C(\C)OP(=O)(OC)OC [MONOCROTOPHOS]							37%	4.76%	6.31%
CCOP(=O)(/N=C1\SCC(C)S1)OCC (stereo unspecified) [CYTROLANE]	3.14%	32%		3.63%					
CCOP(=S)(OCC)Oc1cnc2ccccc2n1 [QUINALPHOS]							28%	4.12%	6.33%
CNC(=O)Oc1cccc2c1OC(C)(C)C2 [CARBOFURAN]	5.14%	35%		4.15%					
CCOP(=S)(OCC)Oc1cc(C)nc(C(C)C)n1 [DIMPYLATE]			3.19%		42%	8.14%			

Source: ChEMBL document CHEMBL3045186, “Assessments of crop losses in rice ecosystems due to stem borer damage (Lepidoptera: Pyralidae)” (2006)
